{"source": "paper PMC3115942", "about": "(PLoS ONE, 2011)", "key": {"[1]": {"system": "Gli1 protein in Sufu−/− MEF", "experiment": "Gli1 immunostaining of Sufu−/− MEF", "type": "cell-based, mouse", "details": "20 µM, 48 hours"}, "[2]": {"system": "GLI1 mRNA in SUIT-2 cells", "experiment": "Real time PCR of GLI1 mRNA in SUIT-2", "type": "cell-based, human", "details": "48 hrs", "experimental": "(§1) Cells were lysed for RNA extraction after 48 or 72 hours of treatment. Total RNA from cultured cells or tumor tissue was isolated using the GeneElute miniprep kit (Sigma-Aldritch) following the manufacturer^'s instructions. cDNA was synthesized from the isolated mRNA using the Retroscript kit (Ambion), and real-time PCR was carried out using the SYBR Green PCR master mix (Stratagene) according to the manufacturer^'s instructions with an Mx3000P cycler (Stratagene). The relative concentrations of cDNA present in each sample were calculated by the MxPro software (Stratagene), normalized for GAPDH (mRNA from cells) or GUS (mRNA from tumors). For real time PCR primer sequences see Table 6. For the tumor tissue real time PCR, previously described human and mouse specific primers against GUSB, PTCH1 and GLI1were used."}, "GLI1 mRNA in PC-3 cells": {"system": "GLI1 mRNA in PC-3 cells", "experiment": "Real time PCR of GLI1 mRNA in PC-3", "type": "cell-based, human", "details": "48 hrs", "experimental": "as §1"}, "[3]": {"system": "PANC-1, SUIT-2, PC-3 and FEMX cells", "experiment": "In vitro antiproliferative assay (MTS), tumor cell lines", "type": "cell-based, human", "details": "10 µM, 4 day exposure; across PANC-1, SUIT-2, PC-3 and FEMX", "experimental": "(§2) Cells were plated at a density of 3000 (THLE-2 and PC-3) and 1000 (PANC-1, SUIT-2 and FEMX) cells per well (on the basis of their growth rate) in 200 µl of medium in a 96-well plate. Medium was changed daily, and after four days, the assay was read using a MTS kit (Promega) according to the instructions of the manufacturer. Graphs display average of percent growth with standard deviation (n = 8)."}, "PANC-1 cells [4]": {"system": "PANC-1 cells", "experiment": "In vitro antiproliferative assay (MTS), PANC-1", "type": "cell-based, human", "details": "5 µM, 4 day", "experimental": "as §2"}, "PC-3 cells": {"system": "PC-3 cells", "experiment": "In vitro antiproliferative assay (MTS), PC-3", "type": "cell-based, human", "details": "4 day", "experimental": "as §2"}, "PANC-1 cells [5]": {"system": "PANC-1 cells", "experiment": "Soft agar colony formation assay, PANC-1", "type": "cell-based, human", "details": "21 days", "experimental": "(§3) 2000 PANC-1 or SUIT-2 cells were suspended in 1.5 mL growth media containing 0.35% agar (Oxoid), over a 1.5 mL base layer containing 0.5% agar in 6-well plates. The plates were incubated for 14 days (SUIT-2) and 21 days (PANC-1) and then stained for 1 h with 1 ml of 0.02% crystal violet (Sigma-Aldrich), and colonies were counted according to sizes; <0.2 mm (small), 0.2–1 mm (medium) and >1 mm (large). Data represent average numbers with standard deviation bars (n = 3). The experiments have been repeated with similar result."}, "SUIT-2 cells": {"system": "SUIT-2 cells", "experiment": "Soft agar colony formation assay, SUIT-2", "type": "cell-based, human", "details": "14 days", "experimental": "as §3"}, "PANC-1 cells [6]": {"system": "PANC-1 cells", "experiment": "Passage growth assay, PANC-1", "type": "cell-based, human", "details": "5 µM, passages of 5–7 days", "experimental": "20,000 cells were seeded per well in 6 well plates (triplicates) with DMSO or 5 µM MS-0022. Treatment medium was changed on day 3–5, and after 5–7 days the cells were trypsinized, re-suspended in medium and counted, before reseeding cells at 20,000/well for a subsequent passage. The average growth of MS-0022 treated cells was calculated as a percentage of the growth of the DMSO control at the end of each passage. Graphs display average of percent growth with standard deviation bars (n = 3)."}, "AMPK(r)": {"system": "AMPK(r)", "experiment": "Millipore kinaseprofiler diversity array", "type": "biochemical, rat", "details": "10 µM MS-0022", "experimental": "Table 4 Kinase activity in presence of 10 µM MS-0022 in a kinaseprofiler diversity array. | column: Activity %"}, "[7]": {"experiment": "Pharmacokinetics in mouse plasma", "type": "in vivo", "details": "5 mg/kg; for Cmax / AUC(0-inf) / AUC(0-t) / half-life / k el: mouse plasma; for concentration at 5 min / concentration at 15 min / concentration at 30 min / concentration at 60 min / concentration at 120 min / concentration at 240 min: read-out: blood concentration", "experimental": "For pharmacokinetic (PK) analysis, 5 mg/kg MS-0022 was given by IV, PO and IP administration to 7–8 week old male C57BL mice (mouse musculus), and blood was collected after 5, 15, 30, 60, 120, and 240 min, with n = 3. Animals were sacrificed and blood samples (∼0.5 mL each) were collected from the abdominal aorta into EDTA-containing tubes, centrifuged (2–8°C for ∼10 minutes at ∼10000 xg) and plasma harvested into single tubes for each animal and frozen (∼−70°C). Blood samples were analyzed by ChemDiv^'s bioanalytical department. The maximum concentration (Cmax), total drug exposure (the area under the curve to the last quantifiable concentration (AUClast) and as the AUClast value extrapolated to infinity (AUCinf), calculated as AUCinf = AUClast+C(t)last/Kel, where C(t)last is the last measurable concentration), half-life (T1/2) calculated as ln(2)/Kel and Kel calculated as the slope of the terminal linear portion of the concentration/time curve. The WinNonlin Professional 5.2 software (Pharsight Corp.) was used for the calculation of the PK parameters."}, "[8]": {"experiment": "Compound concentration in mouse liver tissue", "type": "in vivo", "details": "C57BL, 5 mg/kg, 2 hours after IP administration"}}, "note": "Read-outs that look alike come from different tables or passages of the source.", "data": [{"smiles": "Cc1cccn2cc(-c3ccc(NC(=O)c4ccccc4Br)cc3)nc12", "note": "[MS-0022, 2-bromo-N-(4-(8-methylimidazo[1,2-a]pyridin-2-yl)phenyl)benzamide]", "values": [{"measurement": "ratio of nuclear versus cytoplasmic Gli1", "setting": "[1]", "value": "did not alter the ratio"}, {"measurement": "total level of Gli1 in the cells", "setting": "[1]", "value": "the total level of Gli1 in the cells was reduced"}, {"measurement": "GLI1 mRNA levels, SUIT-2", "setting": "[2]", "value": "reduced GLI1 mRNA levels"}, {"measurement": "GLI1 mRNA levels, PC-3", "setting": "GLI1 mRNA in PC-3 cells", "value": "reduced GLI1 mRNA levels"}, {"measurement": "growth reduction (MTS)", "setting": "[3]", "value": "40%–70%"}, {"measurement": "growth (MTS), PANC-1", "setting": "PANC-1 cells [4]", "value": "reduced growth"}, {"measurement": "growth (MTS), PC-3", "setting": "PC-3 cells", "value": "growth was only reduced by MS-0022"}, {"measurement": "soft agar colony formation, PANC-1", "setting": "PANC-1 cells [5]", "value": "reduction in large (Figure 2C–D, and G) and medium sized colonies"}, {"measurement": "soft agar colony formation, SUIT-2", "setting": "SUIT-2 cells", "value": "reduction in large (Figure 2C–D, and G) and medium sized colonies"}, {"measurement": "growth reduction after passage 2, PANC-1", "setting": "PANC-1 cells [6]", "value": 80, "unit": "%"}, {"measurement": "Activity %", "setting": "AMPK(r)", "value": 98, "unit": "%"}, {"measurement": "Cmax", "setting": "[7]; male, C57BL, mouse, plasma, ip, IP, read-out: Cmax", "value": 378, "unit": "ng/mL"}, {"measurement": "Cmax", "setting": "[7]; male, C57BL, mouse, plasma, iv, IV, read-out: Cmax", "value": 934, "unit": "ng/mL"}, {"measurement": "Cmax", "setting": "[7]; male, C57BL, mouse, plasma, po, PO, read-out: Cmax", "value": 912, "unit": "ng/mL"}, {"measurement": "concentration at 5 min", "setting": "[7]; male, C57BL, mouse, plasma, IP", "value": 30, "unit": "ng/mL"}, {"measurement": "concentration at 15 min", "setting": "[7]; male, C57BL, mouse, plasma, IP", "value": 261, "unit": "ng/mL"}, {"measurement": "concentration at 30 min", "setting": "[7]; male, C57BL, mouse, plasma, IP", "value": 378, "unit": "ng/mL"}, {"measurement": "concentration at 60 min", "setting": "[7]; male, C57BL, mouse, plasma, IP", "value": 158, "unit": "ng/mL"}, {"measurement": "concentration at 120 min", "setting": "[7]; male, C57BL, mouse, plasma, IP", "value": 56, "unit": "ng/mL"}, {"measurement": "concentration at 240 min", "setting": "[7]; male, C57BL, mouse, plasma, IP", "value": 15, "unit": "ng/mL"}, {"measurement": "concentration at 5 min", "setting": "[7]; male, C57BL, mouse, plasma, IV", "value": 934, "unit": "ng/mL"}, {"measurement": "concentration at 15 min", "setting": "[7]; male, C57BL, mouse, plasma, IV", "value": 712, "unit": "ng/mL"}, {"measurement": "concentration at 30 min", "setting": "[7]; male, C57BL, mouse, plasma, IV", "value": 626, "unit": "ng/mL"}, {"measurement": "concentration at 60 min", "setting": "[7]; male, C57BL, mouse, plasma, IV", "value": 620, "unit": "ng/mL"}, {"measurement": "concentration at 120 min", "setting": "[7]; male, C57BL, mouse, plasma, IV", "value": 253, "unit": "ng/mL"}, {"measurement": "concentration at 240 min", "setting": "[7]; male, C57BL, mouse, plasma, IV", "value": 73, "unit": "ng/mL"}, {"measurement": "concentration at 5 min", "setting": "[7]; male, C57BL, mouse, plasma, PO", "value": 468, "unit": "ng/mL"}, {"measurement": "concentration at 15 min", "setting": "[7]; male, C57BL, mouse, plasma, PO", "value": 912, "unit": "ng/mL"}, {"measurement": "concentration at 30 min", "setting": "[7]; male, C57BL, mouse, plasma, PO", "value": 461, "unit": "ng/mL"}, {"measurement": "concentration at 60 min", "setting": "[7]; male, C57BL, mouse, plasma, PO", "value": 437, "unit": "ng/mL"}, {"measurement": "concentration at 120 min", "setting": "[7]; male, C57BL, mouse, plasma, PO", "value": 180, "unit": "ng/mL"}, {"measurement": "concentration at 240 min", "setting": "[7]; male, C57BL, mouse, plasma, PO", "value": 51, "unit": "ng/mL"}, {"measurement": "bioavailability", "setting": "[7]; male, C57BL, plasma, po, mouse, read-out: Per oral bioavailability", "value": 98, "unit": "%"}, {"measurement": "AUC(0-inf)", "setting": "[7]; male, C57BL, IP", "value": 437, "unit": "ng·h/mL"}, {"measurement": "AUC(0-t)", "setting": "[7]; male, C57BL, IP", "value": 417, "unit": "ng·h/mL"}, {"measurement": "half-life", "setting": "[7]; male, C57BL, IP", "value": 54.8, "unit": "min"}, {"measurement": "k el", "setting": "[7]; male, C57BL, IP", "value": 0.00021, "unit": "s⁻¹"}, {"measurement": "AUC(0-inf)", "setting": "[7]; male, C57BL, IV", "value": 1560, "unit": "ng·h/mL"}, {"measurement": "AUC(0-t)", "setting": "[7]; male, C57BL, IV", "value": 1460, "unit": "ng·h/mL"}, {"measurement": "half-life", "setting": "[7]; male, C57BL, IV", "value": 59.3, "unit": "min"}, {"measurement": "k el", "setting": "[7]; male, C57BL, IV", "value": 0.000195, "unit": "s⁻¹"}, {"measurement": "AUC(0-inf)", "setting": "[7]; male, C57BL, PO", "value": 1140, "unit": "ng·h/mL"}, {"measurement": "AUC(0-t)", "setting": "[7]; male, C57BL, PO", "value": 1070, "unit": "ng·h/mL"}, {"measurement": "half-life", "setting": "[7]; male, C57BL, PO", "value": 59.1, "unit": "min"}, {"measurement": "k el", "setting": "[7]; male, C57BL, PO", "value": 0.000195, "unit": "s⁻¹"}, {"measurement": "Cmax", "setting": "[7]; IP", "value": 377.7, "unit": "ng/mL"}, {"measurement": "Cmax", "setting": "[7]; IV", "value": 934.3, "unit": "ng/mL"}, {"measurement": "concentration at 2 h", "setting": "[8]", "value": 244, "unit": "ng/g"}]}]}
